Test results: patent US11116771B2, “G protein-coupled receptor (GPCR) modulation by imipridones” (Oncoceutics, Inc., priority 2016, dated 2021)
Converted amounts (≈) assume the structure as drawn. “Also recorded” adds a separate entry of the source. Read-outs that look alike come from different tables or passages of the source.

How the values were obtained:
[1] = system: Staphylococcus aureus ATCC 700699; assay: MIC by micro-broth dilution, S. aureus ATCC 700699; format: cell-based
[2] = system: Staphylococcus aureus ATCC 33591; assay: MIC by micro-broth dilution, S. aureus ATCC 33591; format: cell-based
human cancer cells = assay: Viability of human cancer cells at 72 hours post-treatment; format: cell-based; details: for Relative Potency*: relative to the potency of ONC201, viability of human cancer cells at 72 hours post-treatment
[3] = system: NCI60 cancer cell line panel; assay: NCI60 cancer cell line panel; format: cell-based; details: NCI60 panel (FIG. 16)
[4] = system: Staphylococcus aureus ATCC 29213; assay: MIC by micro-broth dilution, S. aureus ATCC 29213; format: cell-based
GPR132 = molecular target: T1, GPR132 (Homo sapiens, UniProt Q9UNW8); assay: β-arrestin recruitment GPCR reporter assay, GPR132; format: cell-based
T1 sequence (Q9UNW8 1-380): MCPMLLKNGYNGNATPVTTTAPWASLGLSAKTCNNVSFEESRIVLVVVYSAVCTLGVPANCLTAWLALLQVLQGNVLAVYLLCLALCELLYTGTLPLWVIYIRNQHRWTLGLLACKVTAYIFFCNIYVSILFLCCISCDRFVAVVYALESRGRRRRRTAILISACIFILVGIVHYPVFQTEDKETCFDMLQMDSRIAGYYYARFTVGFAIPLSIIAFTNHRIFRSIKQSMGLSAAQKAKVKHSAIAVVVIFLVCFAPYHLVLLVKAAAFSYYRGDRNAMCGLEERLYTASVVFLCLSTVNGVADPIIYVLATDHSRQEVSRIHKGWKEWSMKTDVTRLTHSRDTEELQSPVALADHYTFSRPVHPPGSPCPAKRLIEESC

HCT116 cells = assay: Anticancer efficacy in HCT116 cells; format: cell-based, human; details: HCT116 cells
DRD5 = DRD5 (Homo sapiens, UniProt P21918); assay: β-arrestin recruitment GPCR reporter assay, DRD5; format: cell-based; details: arrestin recruitment reporter assay
Chain of DRD5 (P21918 whole entry): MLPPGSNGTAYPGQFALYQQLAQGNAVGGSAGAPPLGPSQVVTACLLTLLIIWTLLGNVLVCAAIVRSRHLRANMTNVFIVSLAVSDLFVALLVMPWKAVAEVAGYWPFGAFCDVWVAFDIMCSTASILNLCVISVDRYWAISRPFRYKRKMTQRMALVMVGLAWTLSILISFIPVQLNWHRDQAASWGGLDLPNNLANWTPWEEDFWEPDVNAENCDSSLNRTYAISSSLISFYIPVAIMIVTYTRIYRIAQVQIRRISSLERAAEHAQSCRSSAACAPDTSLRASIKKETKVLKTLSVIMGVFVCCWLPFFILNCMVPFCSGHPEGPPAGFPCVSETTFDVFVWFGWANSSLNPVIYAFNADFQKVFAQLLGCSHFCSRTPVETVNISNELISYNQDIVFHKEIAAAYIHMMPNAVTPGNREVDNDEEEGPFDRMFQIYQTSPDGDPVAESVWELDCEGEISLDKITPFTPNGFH

[5] = Staphylococcus aureus, ATCC700699, 48 h
[6] = Staphylococcus aureus, ATCC33591, 24 h
[7] = Staphylococcus aureus, ATCC29213, 24 h

COc1cccc(OC)c1C(=O)N[C@@H]1C(=O)N2[C@@H]1SC(C)(C)[C@@H]2C(=O)O [Methicillin, reference compound]
MIC ([1]; ATCC700699, MDR Staphylococcus aureus (ATCC 700699), read-out: MIC): > 100 µg/mL
MIC90 ([1]; Staphylococcus aureus, ATCC700699, ATCC 700699 (48 hours), read-out: MIC90): > 100 µg/mL
MIC ([1]; Staphylococcus aureus, ATCC700699, ATCC 700699 (48 hours), read-out: MIC95): > 100 µg/mL
MIC99 ([1]; Staphylococcus aureus, ATCC700699, ATCC 700699 (48 hours), read-out: MIC99): > 100 µg/mL
MIC ([1]; Staphylococcus aureus, ATCC700699, ATCC 700699 (48 hours), read-out: MIC, Visual): > 100 µg/mL
MIC ([2]; ATCC33591, Staphylococcus aureus (ATCC 33591), methicillin resistant, read-out: MIC): > 100 µg/mL
MIC90 ([2]; Staphylococcus aureus, ATCC33591, ATCC 33591, 24 hours, read-out: MIC90): > 100 µg/mL
MIC ([2]; Staphylococcus aureus, ATCC33591, ATCC 33591, 24 hours, read-out: MIC95): > 100 µg/mL
MIC99 ([2]; Staphylococcus aureus, ATCC33591, ATCC 33591, 24 hours, read-out: MIC99): > 100 µg/mL
MIC ([2]; Staphylococcus aureus, ATCC33591, ATCC 33591, 24 hours, read-out: MIC, Visual): > 100 µg/mL

O=C1C2=C(CCN(Cc3ccccc3)C2)N2CCN=C2N1Cc1cccs1 [ONC203]
Relative Potency* (human cancer cells): C (C Indicates a potency decrease of >2-fold of ONC201)
anti-cancer efficacy across tumor types [3]: inactive negative control

O=C1C2=C(CCN(Cc3ccccc3)C2)N2CCN=C2N1CCc1ccccc1 [ONC204]
Relative Potency* (human cancer cells): C (C Indicates a potency decrease of >2-fold of ONC201)

O=C1C2=C(CCN(Cc3ccccc3)C2)N2CCN=C2N1CCN1CCN(Cc2ccccc2)CC1 [ONC205]
Relative Potency* (human cancer cells): C (C Indicates a potency decrease of >2-fold of ONC201)

Cc1ccccc1CN1C(=O)C2=C(CCNC2)N2CCN=C12 [ONC207]
MIC90 ([1]; ATCC 700699 (48 hours)): >100 µg/mL
MIC95 ([1]; ATCC 700699 (48 hours)): >100 µg/mL
MIC99 ([1]; ATCC 700699 (48 hours)): >100 µg/mL
MIC, Visual ([1]; ATCC 700699 (48 hours)): >100 µg/mL
Relative Potency* (human cancer cells): B (B Indicates potency that is within 2-fold of ONC201)
MIC90 ([2]; ATCC 33591, 24 hours): >100 µg/mL
MIC95 ([2]; ATCC 33591, 24 hours): >100 µg/mL
MIC99 ([2]; ATCC 33591, 24 hours): >100 µg/mL
MIC, Visual ([2]; ATCC 33591, 24 hours): >100 µg/mL
MIC95 ([4]; ATCC 29213, 24 hours): >100 µg/mL
MIC99 ([4]; ATCC 29213, 24 hours): >100 µg/mL
MIC, Visual ([4]; ATCC 29213, 24 hours): >100 µg/mL

Cc1ccccc1CN1C(=O)C2=C(CCN(C)C2)N2CCN=C12 [ONC208]
Relative Potency* (human cancer cells): B (B Indicates potency that is within 2-fold of ONC201)

Cc1ccccc1CN1C(=O)C2=C(CCN(CCc3ccccc3)C2)N2CCN=C12 [ONC209]
Relative Potency* (human cancer cells): B (B Indicates potency that is within 2-fold of ONC201)

O=C1C2=C(CCN(Cc3ccccc3)C2)N2CCN=C2N1Cc1cc(F)cc(F)c1 [ONC210]
Relative Potency* (human cancer cells): B (B Indicates potency that is within 2-fold of ONC201)

O=C1C2=C(CCN(Cc3ccccc3)C2)N2CCN=C2N1Cc1ccc(Cl)c(Cl)c1 [ONC211]
Relative Potency* (human cancer cells): B (B Indicates potency that is within 2-fold of ONC201)

Cc1ccccc1CN1C(=O)C2=C(CCN(CCCN)C2)N2CCN=C12 [ONC216]
Relative Potency* (human cancer cells): B (B Indicates potency that is within 2-fold of ONC201)

O=C1C2=C(CCN(Cc3ccccc3)C2)N2CCN=C2N1Cc1ccccc1F [ONC217]
Relative Potency* (human cancer cells): C (C Indicates a potency decrease of >2-fold of ONC201)

Cc1cc(F)ccc1CN1C(=O)C2=C(CCN(Cc3ccccc3)C2)N2CCN=C12 [ONC218]
Relative Potency* (human cancer cells): A (A Indicates a potency increase of >2-fold of ONC201)

O=C1C2=C(CCN(Cc3ccccc3)C2)N2CCN=C2N1Cc1ccc(Cl)cc1Cl [ONC219]
Relative Potency* (human cancer cells): A (A Indicates a potency increase of >2-fold of ONC201)

COc1ccc(CN2C(=O)C3=C(CCN(Cc4ccccc4)C3)N3CCN=C23)cc1 [ONC220]
Relative Potency* (human cancer cells): A (A Indicates a potency increase of >2-fold of ONC201)

O=C1C2=C(CCNC2)N2CCN=C2N1Cc1ccc(C(F)(F)F)cc1 [ONC221]
Relative Potency* (human cancer cells): A (A Indicates a potency increase of >2-fold of ONC201)

O=C1C2=C(CCN(Cc3ccccc3)C2)N2CCN=C2N1CC1CCON1 (stereo not shown) [ONC222]
Relative Potency* (human cancer cells): C (C Indicates a potency decrease of >2-fold of ONC201)

Cc1ccc(CN2C(=O)C3=C(CCN(Cc4ccccc4)C3)N3CCN=C23)cc1 [ONC223]
Relative Potency* (human cancer cells): A (A Indicates a potency increase of >2-fold of ONC201)

O=C1C2=C(CCN(Cc3ccccc3)C2)N2CCN=C2N1CCN1CCOCC1 [ONC224]
Relative Potency* (human cancer cells): A (A Indicates a potency increase of >2-fold of ONC201)

O=C1C2=C(CCN(Cc3ccccc3)C2)N2CCN=C2N1Cc1ccc(C(F)(F)F)cc1F [ONC225]
Relative Potency* (human cancer cells): A (A Indicates a potency increase of >2-fold of ONC201)

O=C1C2=C(CCN(Cc3ccccc3)C2)N2CCN=C2N1Cc1cccnc1 [ONC226]
Relative Potency* (human cancer cells): A (A Indicates a potency increase of >2-fold of ONC201)

O=C1C2=C(CCN(Cc3ccc(C(F)(F)F)cc3)C2)N2CCN=C2N1Cc1ccc(C(F)(F)F)cc1 [ONC227]
Relative Potency* (human cancer cells): B (B Indicates potency that is within 2-fold of ONC201)

O=C1C2=C(CCN(Cc3ccc(F)cc3)C2)N2CCN=C2N1Cc1ccc(C(F)(F)F)cc1 [ONC228]
Relative Potency* (human cancer cells): A (A Indicates a potency increase of >2-fold of ONC201)

COc1ccc(CN2CCC3=C(C2)C(=O)N(Cc2ccc(C(F)(F)F)cc2)C2=NCCN23)cc1 [ONC229]
Relative Potency* (human cancer cells): B (B Indicates potency that is within 2-fold of ONC201)

O=C(CCCN1CCC2=C(C1)C(=O)N(Cc1ccc(C(F)(F)F)cc1)C1=NCCN12)c1ccc(F)cc1 [ONC230]
Relative Potency* (human cancer cells): A (A Indicates a potency increase of >2-fold of ONC201)

O=C1C2=C(CCN(Cc3cccnc3)C2)N2CCN=C2N1Cc1ccc(C(F)(F)F)cc1 [ONC231]
Relative Potency* (human cancer cells): A (A Indicates a potency increase of >2-fold of ONC201)

Cc1csc(CN2CCC3=C(C2)C(=O)N(Cc2ccc(C(F)(F)F)cc2)C2=NCCN23)n1 [ONC232]
Relative Potency* (human cancer cells): B (B Indicates potency that is within 2-fold of ONC201)

O=C1C2=C(CCN(Cc3cnccn3)C2)N2CCN=C2N1Cc1ccc(C(F)(F)F)cc1 [ONC233]
Relative Potency* (human cancer cells): B (B Indicates potency that is within 2-fold of ONC201)

O=C1C2=C(CCN(Cc3ccsc3)C2)N2CCN=C2N1Cc1ccc(C(F)(F)F)cc1 [ONC236]
GPCR activity, GPR132 (GPR132): highly selective GPR132 agonist
Relative Potency* (human cancer cells): A (A Indicates a potency increase of >2-fold of ONC201)
completeness of response (HCT116 cells): better than ONC201 but not ONC212; also recorded: same as ONC212, and better than ONC201

O=C1C2=C(CCN(CC(O)c3ccccc3)C2)N2CCN=C2N1Cc1ccc(C(F)(F)F)cc1 (stereo not shown) [ONC237]
GPCR activity, GPR132 (GPR132): GPR132 agonist
IC50 (human cancer cells; Homo sapiens, cell line not stated, read-out: anticancer efficacy IC50): 31.2 µM
Relative Potency* (human cancer cells): C (C Indicates a potency decrease of >2-fold of ONC201)
GPCR activity, DRD5 (DRD5): DRD5 antagonist

CN[C@H](CC(C)C)C(=O)N[C@H]1C(=O)N[C@@H](CC(N)=O)C(=O)N[C@H]2C(=O)N[C@H]3C(=O)N[C@H](C(=O)N[C@H](C(=O)O)c4cc(O)cc(O)c4-c4cc3ccc4O)[C@H](O)c3ccc(c(Cl)c3)Oc3cc2cc(c3O[C@@H]2O[C@H](CO)[C@@H](O)[C@H](O)[C@H]2O[C@H]2C[C@](C)(N)[C@H](O)[C@H](C)O2)Oc2ccc(cc2Cl)[C@H]1O [Vancomycin, reference compound]
MIC90 [1, 5]: 12.5 µg/mL (≈ 8.63 µM)
MIC99 [1, 5]: 25 µg/mL (≈ 17.3 µM)
MIC ([1]; Staphylococcus aureus, ATCC700699, 48 h, read-out: MIC95): 25 µg/mL (≈ 17.3 µM)
MIC ([1]; Staphylococcus aureus, ATCC700699, 48 h, read-out: MIC, Visual): 25 µg/mL (≈ 17.3 µM)
MIC90 [2, 6]: 0.39 µg/mL (≈ 0.269 µM)
MIC99 [2, 6]: 0.78 µg/mL (≈ 0.538 µM)
MIC ([2]; Staphylococcus aureus, ATCC33591, 24 h, read-out: MIC95): 0.39 µg/mL (≈ 0.269 µM)
MIC ([2]; Staphylococcus aureus, ATCC33591, 24 h, read-out: MIC, Visual): 0.391 µg/mL (≈ 0.27 µM)
MIC90 [4, 7]: 3.13 µg/mL (≈ 2.16 µM)
MIC99 [4, 7]: 6.25 µg/mL (≈ 4.31 µM)
MIC ([4]; Staphylococcus aureus, ATCC29213, 24 h, read-out: MIC95): 3.13 µg/mL (≈ 2.16 µM)
MIC ([4]; Staphylococcus aureus, ATCC29213, 24 h, read-out: MIC, Visual): 3.12 µg/mL (≈ 2.16 µM)
